Experimental data from the NIST ThermoML archive (doi:10.1021/je900091b).
Numbers after ± are expanded uncertainties.

Assay: xn = mol fraction of the nth substance listed
Details: Liquid

C=C(C)C(=O)OC [methyl methacrylate] + CCCCn1cc[n+](C)c1.F[P-](F)(F)(F)(F)F
Details	mass density [kg/m3]	viscosity [mPa·s]
283.15 K, x1 = 0.0986	1360.73 ± 1.7	434.9 ± 64
283.15 K, x1 = 0.2094	1335.27 ± 1.6	218.03 ± 22
283.15 K, x1 = 0.3073	1310.42 ± 1.6	118.57 ± 7
283.15 K, x1 = 0.4053	1282.19 ± 1.5	64.04 ± 1.2
283.15 K, x1 = 0.4977	1250.45 ± 1.3	34.64 ± 0.61
283.15 K, x1 = 0.5993	1211.21 ± 1.2	17.78 ± 0.32
283.15 K, x1 = 0.7009	1164.35 ± 1	8.859 ± 0.18
283.15 K, x1 = 0.8003	1109.1 ± 0.84	3.909 ± 0.089
283.15 K, x1 = 0.9007	1042.12 ± 0.6	1.719 ± 0.041
283.15 K, x1 = 1	954.802 ± 0.57	0.6808 ± 0.018
288.15 K, x1 = 0.0986	1356.38 ± 1.7	308.34 ± 38
288.15 K, x1 = 0.2094	1330.98 ± 1.6	161.21 ± 13
288.15 K, x1 = 0.3073	1306.05 ± 1.5	91.29 ± 3.8
288.15 K, x1 = 0.4053	1277.72 ± 1.4	50.28 ± 0.29
288.15 K, x1 = 0.4977	1245.87 ± 1.3	28.16 ± 0.5
288.15 K, x1 = 0.5993	1206.49 ± 1.2	14.99 ± 0.28
288.15 K, x1 = 0.7009	1159.46 ± 1	7.717 ± 0.16
288.15 K, x1 = 0.8003	1103.97 ± 0.82	3.485 ± 0.079
288.15 K, x1 = 0.9007	1036.71 ± 0.58	1.575 ± 0.038
288.15 K, x1 = 1	949.097 ± 0.58	0.6337 ± 0.017
293.15 K, x1 = 0.0986	1352.04 ± 1.7	224.88 ± 23
293.15 K, x1 = 0.2094	1326.72 ± 1.6	122.32 ± 7.5
293.15 K, x1 = 0.3073	1301.68 ± 1.5	71.8 ± 1.8
293.15 K, x1 = 0.4053	1273.26 ± 1.4	40.3 ± 0.69
293.15 K, x1 = 0.4977	1241.3 ± 1.3	23.27 ± 0.41
293.15 K, x1 = 0.5993	1201.58 ± 1.2	12.81 ± 0.24
293.15 K, x1 = 0.7009	1154.07 ± 1	6.781 ± 0.14
293.15 K, x1 = 0.8003	1098.45 ± 0.8	3.136 ± 0.072
293.15 K, x1 = 0.9007	1031.1 ± 0.56	1.45 ± 0.035
293.15 K, x1 = 1	943.365 ± 0.6	0.5899 ± 0.016
298.15 K, x1 = 0.0986	1347.84 ± 1.7	168.14 ± 14
298.15 K, x1 = 0.2094	1322.45 ± 1.6	94.88 ± 4.2
298.15 K, x1 = 0.3073	1297.32 ± 1.5	55.22 ± 0.48
298.15 K, x1 = 0.4053	1268.81 ± 1.4	32.87 ± 0.57
298.15 K, x1 = 0.4977	1236.75 ± 1.3	19.54 ± 0.35
298.15 K, x1 = 0.5993	1197.09 ± 1.2	11.07 ± 0.21
298.15 K, x1 = 0.7009	1149.69 ± 0.98	6.014 ± 0.13
298.15 K, x1 = 0.8003	1093.72 ± 0.78	2.836 ± 0.065
298.15 K, x1 = 0.9007	1025.87 ± 0.54	1.342 ± 0.033
298.15 K, x1 = 1	937.615 ± 0.61	0.554 ± 0.015
303.15 K, x1 = 0.0986	1343.67 ± 1.7	128.46 ± 8.3
303.15 K, x1 = 0.2094	1318.17 ± 1.6	75.44 ± 2.2
303.15 K, x1 = 0.3073	1292.97 ± 1.5	44.49 ± 0.76
303.15 K, x1 = 0.4053	1264.37 ± 1.4	27.22 ± 0.48
303.15 K, x1 = 0.4977	1232.2 ± 1.3	16.62 ± 0.3
303.15 K, x1 = 0.5993	1192.4 ± 1.1	9.662 ± 0.19
303.15 K, x1 = 0.7009	1144.81 ± 0.97	5.374 ± 0.12
303.15 K, x1 = 0.8003	1088.59 ± 0.77	2.583 ± 0.06
303.15 K, x1 = 0.9007	1020.43 ± 0.52	1.247 ± 0.031
303.15 K, x1 = 1	931.837 ± 0.63	0.5248 ± 0.015
308.15 K, x1 = 0.0986	1339.49 ± 1.7	100.54 ± 4.8
308.15 K, x1 = 0.2094	1313.91 ± 1.6	58.33 ± 0.7
308.15 K, x1 = 0.3073	1288.62 ± 1.5	36.45 ± 0.63
308.15 K, x1 = 0.4053	1259.94 ± 1.4	22.86 ± 0.4
308.15 K, x1 = 0.4977	1227.67 ± 1.3	14.29 ± 0.27
308.15 K, x1 = 0.5993	1187.73 ± 1.1	8.505 ± 0.17
308.15 K, x1 = 0.7009	1139.93 ± 0.95	4.838 ± 0.11
308.15 K, x1 = 0.8003	1083.46 ± 0.75	2.369 ± 0.055
308.15 K, x1 = 0.9007	1014.97 ± 0.5	1.165 ± 0.029
308.15 K, x1 = 1	926.032 ± 0.65	0.4956 ± 0.014
313.15 K, x1 = 0.0986	1335.32 ± 1.6	80.4 ± 2.7
313.15 K, x1 = 0.2094	1309.66 ± 1.5	47.27 ± 0.8
313.15 K, x1 = 0.3073	1284.28 ± 1.5	30.27 ± 0.52
313.15 K, x1 = 0.4053	1255.53 ± 1.4	19.43 ± 0.35
313.15 K, x1 = 0.4977	1223.15 ± 1.2	12.43 ± 0.23
313.15 K, x1 = 0.5993	1183.05 ± 1.1	7.55 ± 0.15
313.15 K, x1 = 0.7009	1135.06 ± 0.93	4.379 ± 0.098
313.15 K, x1 = 0.8003	1078.32 ± 0.73	2.175 ± 0.051
313.15 K, x1 = 0.9007	1009.49 ± 0.48	1.092 ± 0.027
313.15 K, x1 = 1	920.185 ± 0.66	0.4719 ± 0.013
318.15 K, x1 = 0.0986	1331.15 ± 1.6	62.99 ± 1.1
318.15 K, x1 = 0.2094	1305.41 ± 1.5	38.91 ± 0.66
318.15 K, x1 = 0.3073	1279.94 ± 1.4	25.49 ± 0.45
318.15 K, x1 = 0.4053	1251.13 ± 1.3	16.71 ± 0.3
318.15 K, x1 = 0.4977	1218.64 ± 1.2	10.9 ± 0.21
318.15 K, x1 = 0.5993	1178.39 ± 1.1	6.745 ± 0.14
318.15 K, x1 = 0.7009	1130.19 ± 0.92	3.99 ± 0.09
318.15 K, x1 = 0.8003	1073.17 ± 0.71	2.007 ± 0.047
318.15 K, x1 = 0.9007	1004 ± 0.47	1.026 ± 0.026
318.15 K, x1 = 1	914.317 ± 0.68	0.4497 ± 0.013
323.15 K, x1 = 0.0986	1327 ± 1.6	51.32 ± 0.28
323.15 K, x1 = 0.2094	1301.17 ± 1.5	32.45 ± 0.56
323.15 K, x1 = 0.3073	1275.58 ± 1.4	21.7 ± 0.38
323.15 K, x1 = 0.4053	1246.74 ± 1.3	14.51 ± 0.27
323.15 K, x1 = 0.4977	1214.13 ± 1.2	9.64 ± 0.19
323.15 K, x1 = 0.5993	1173.73 ± 1.1	6.066 ± 0.13
323.15 K, x1 = 0.7009	1125.33 ± 0.9	3.653 ± 0.083
323.15 K, x1 = 0.8003	1068.01 ± 0.7	1.868 ± 0.044
323.15 K, x1 = 0.9007	998.489 ± 0.46	0.9687 ± 0.025
323.15 K, x1 = 1	908.405 ± 0.69	0.4294 ± 0.013
328.15 K, x1 = 0.0986	1322.85 ± 1.6	42.36 ± 0.72
328.15 K, x1 = 0.2094	1296.92 ± 1.5	27.39 ± 0.48
328.15 K, x1 = 0.3073	1271.14 ± 1.4	18.69 ± 0.33
328.15 K, x1 = 0.4053	1242.36 ± 1.3	12.71 ± 0.24
328.15 K, x1 = 0.4977	1209.65 ± 1.2	8.585 ± 0.17
328.15 K, x1 = 0.5993	1169.08 ± 1.1	5.497 ± 0.12
328.15 K, x1 = 0.7009	1120.46 ± 0.88	3.362 ± 0.077
328.15 K, x1 = 0.8003	1062.85 ± 0.68	1.743 ± 0.042
328.15 K, x1 = 0.9007	992.98 ± 0.47	0.9201 ± 0.023
328.15 K, x1 = 1	902.468 ± 0.71	0.41 ± 0.012
333.15 K, x1 = 0.0986	1318.71 ± 1.6	35.43 ± 0.61
333.15 K, x1 = 0.2094	1292.66 ± 1.5	23.38 ± 0.41
333.15 K, x1 = 0.3073	1267.36 ± 1.4	16.24 ± 0.29
333.15 K, x1 = 0.4053	1237.99 ± 1.3	11.22 ± 0.21
333.15 K, x1 = 0.4977	1205.17 ± 1.2	7.691 ± 0.16
333.15 K, x1 = 0.5993	1164.44 ± 1	4.991 ± 0.11
333.15 K, x1 = 0.7009	1115.59 ± 0.87	3.111 ± 0.071
333.15 K, x1 = 0.8003	1057.67 ± 0.66	1.629 ± 0.039
333.15 K, x1 = 0.9007	987.485 ± 0.49	0.915 ± 0.023
333.15 K, x1 = 1	896.479 ± 0.73	0.3938 ± 0.012
343.15 K, x1 = 0.0986	1310.46 ± 1.6	25.61 ± 0.45
343.15 K, x1 = 0.2094	1284.51 ± 1.5	17.56 ± 0.32
343.15 K, x1 = 0.3073	1259.32 ± 1.4	12.57 ± 0.23
343.15 K, x1 = 0.4053	1229.29 ± 1.3	8.922 ± 0.18
343.15 K, x1 = 0.4977	1196.23 ± 1.2	6.278 ± 0.13
343.15 K, x1 = 0.5993	1155.17 ± 1	4.187 ± 0.094
343.15 K, x1 = 0.7009	1105.84 ± 0.83	2.708 ± 0.062
343.15 K, x1 = 0.8003	1047.29 ± 0.62	1.431 ± 0.035
343.15 K, x1 = 0.9007	976.413 ± 0.52	0.8545 ± 0.022
343.15 K, x1 = 1	884.418 ± 0.76	0.3636 ± 0.011
353.15 K, x1 = 0.0986	1302.23 ± 1.5	19.25 ± 0.34
353.15 K, x1 = 0.2094	1275.98 ± 1.4	13.65 ± 0.25
353.15 K, x1 = 0.3073	1250.71 ± 1.3	10.01 ± 0.19
353.15 K, x1 = 0.4053	1220.62 ± 1.2	7.259 ± 0.15
353.15 K, x1 = 0.4977	1187.32 ± 1.1	5.224 ± 0.12
353.15 K, x1 = 0.5993	1145.91 ± 0.98	3.579 ± 0.081
353.15 K, x1 = 0.7009	1096.08 ± 0.8	2.415 ± 0.056
353.15 K, x1 = 0.8003	1036.87 ± 0.59	1.272 ± 0.031
353.15 K, x1 = 0.9007	965.13 ± 0.55	0.781 ± 0.02
353.15 K, x1 = 1	872.129 ± 0.8	0.3398 ± 0.011
